Laboratory results published in patent US10927106B2, “Benzothiazole derivatives as DYRK1 inhibitors” (PHARMASUM THERAPEUTICS AS, priority 2017, dated 2021).
Read-outs that look alike come from different tables or passages of the source.

Columns and labels:
Assay in all cases: Kinase profiling, 33P ATP filter binding assay
Assay type in all cases: biochemical
p38a MAPK = p38a MAPK (Homo sapiens (Human), UniProt Q16539); conditions: 1 micromolar inhibitor concentration, read-out: percentage inhibition
ERK8 = ERK8 (Homo sapiens (Human), UniProt Q8TD08); conditions: 1 micromolar inhibitor concentration, read-out: percentage inhibition
PDK1 = PDK1 (Homo sapiens (Human), UniProt O15530); conditions: 1 micromolar inhibitor concentration, read-out: percentage inhibition
PKBa = PKBa (Homo sapiens (Human), UniProt P31749); conditions: 1 micromolar inhibitor concentration, read-out: percentage inhibition
PKBb = PKBb (Homo sapiens (Human), UniProt P31751); conditions: 1 micromolar inhibitor concentration, read-out: percentage inhibition
S6K1 = S6K1 (Homo sapiens (Human), UniProt P23443); conditions: 1 micromolar inhibitor concentration, read-out: percentage inhibition
PKA = PKA (Homo sapiens (Human), UniProt P17612); conditions: 1 micromolar inhibitor concentration, read-out: percentage inhibition
MNK2 = MNK2 (Homo sapiens (Human), UniProt Q9HBH9); conditions: 1 micromolar inhibitor concentration, read-out: percentage inhibition
Sequence of MNK2 (Q9HBH9 whole entry, species assumed): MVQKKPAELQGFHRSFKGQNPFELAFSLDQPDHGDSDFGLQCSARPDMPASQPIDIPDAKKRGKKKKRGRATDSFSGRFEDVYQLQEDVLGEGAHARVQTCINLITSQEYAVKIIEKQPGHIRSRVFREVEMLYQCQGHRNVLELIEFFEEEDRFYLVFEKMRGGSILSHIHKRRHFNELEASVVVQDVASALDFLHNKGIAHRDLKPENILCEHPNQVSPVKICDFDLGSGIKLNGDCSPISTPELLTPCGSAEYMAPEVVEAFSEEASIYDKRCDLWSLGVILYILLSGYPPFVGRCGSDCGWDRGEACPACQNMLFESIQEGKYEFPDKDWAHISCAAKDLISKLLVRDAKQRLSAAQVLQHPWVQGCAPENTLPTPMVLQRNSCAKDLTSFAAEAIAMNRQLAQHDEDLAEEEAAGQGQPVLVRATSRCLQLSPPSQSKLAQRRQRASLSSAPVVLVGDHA

CAMK1 = CAMK1 (Homo sapiens (Human), UniProt Q14012); conditions: 1 micromolar inhibitor concentration, read-out: percentage inhibition
DAPK1 = DAPK1 (Homo sapiens (Human), UniProt P53355); conditions: 1 micromolar inhibitor concentration, read-out: percentage inhibition
CDK9-Cyclin T1 = CDK9-Cyclin T1 (Homo sapiens (Human), UniProt P50750); conditions: 1 micromolar inhibitor concentration, read-out: percentage inhibition
PLK1 = PLK1 (Homo sapiens (Human), UniProt P53350); conditions: 1 micromolar inhibitor concentration, read-out: percentage inhibition
Sequence of PLK1 (P53350 whole entry, species assumed): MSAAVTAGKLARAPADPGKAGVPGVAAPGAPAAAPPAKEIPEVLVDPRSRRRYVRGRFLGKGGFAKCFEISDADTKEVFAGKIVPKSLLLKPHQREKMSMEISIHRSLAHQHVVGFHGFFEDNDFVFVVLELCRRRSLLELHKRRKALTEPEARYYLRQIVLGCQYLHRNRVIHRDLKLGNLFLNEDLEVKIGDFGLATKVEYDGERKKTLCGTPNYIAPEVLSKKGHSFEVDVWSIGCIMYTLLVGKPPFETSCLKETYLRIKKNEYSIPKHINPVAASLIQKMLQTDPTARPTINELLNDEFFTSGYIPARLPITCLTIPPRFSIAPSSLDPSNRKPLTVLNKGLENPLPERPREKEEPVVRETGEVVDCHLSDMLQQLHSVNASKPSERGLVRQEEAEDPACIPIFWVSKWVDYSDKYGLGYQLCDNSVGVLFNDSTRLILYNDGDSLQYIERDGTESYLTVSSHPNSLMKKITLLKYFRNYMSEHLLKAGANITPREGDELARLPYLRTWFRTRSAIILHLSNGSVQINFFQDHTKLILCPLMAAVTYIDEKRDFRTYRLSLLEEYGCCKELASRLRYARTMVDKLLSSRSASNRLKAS

TLK1 = TLK1 (Homo sapiens (Human), UniProt Q9UKI8); conditions: 1 micromolar inhibitor concentration, read-out: percentage inhibition
LKB1 = LKB1 (Homo sapiens (Human), UniProt Q15831); conditions: 1 micromolar inhibitor concentration, read-out: percentage inhibition
BRSK1 = BRSK1 (Homo sapiens (Human), UniProt Q8TDC3); conditions: 1 micromolar inhibitor concentration, read-out: percentage inhibition
BRSK2 = BRSK2 (Homo sapiens (Human), UniProt Q8IWQ3); conditions: 1 micromolar inhibitor concentration, read-out: percentage inhibition
CK1δ = CK1δ (Homo sapiens (Human), UniProt P48730); conditions: read-out: percentage inhibition
Procedure: The determination of protein kinase inhibition was performed at the International Centre for Kinase Profiling at the University of Dundee, UK. […] The ATP concentrations were at or below the calculated Km for ATP for each particular kinase.

CK2 = CK2 (Homo sapiens (Human), UniProt P68400); conditions: 1 micromolar inhibitor concentration, read-out: percentage inhibition
IKKe = IKKe (Homo sapiens (Human), UniProt Q14164); conditions: 1 micromolar inhibitor concentration, read-out: percentage inhibition
Sequence of IKKe (Q14164 whole entry, species assumed): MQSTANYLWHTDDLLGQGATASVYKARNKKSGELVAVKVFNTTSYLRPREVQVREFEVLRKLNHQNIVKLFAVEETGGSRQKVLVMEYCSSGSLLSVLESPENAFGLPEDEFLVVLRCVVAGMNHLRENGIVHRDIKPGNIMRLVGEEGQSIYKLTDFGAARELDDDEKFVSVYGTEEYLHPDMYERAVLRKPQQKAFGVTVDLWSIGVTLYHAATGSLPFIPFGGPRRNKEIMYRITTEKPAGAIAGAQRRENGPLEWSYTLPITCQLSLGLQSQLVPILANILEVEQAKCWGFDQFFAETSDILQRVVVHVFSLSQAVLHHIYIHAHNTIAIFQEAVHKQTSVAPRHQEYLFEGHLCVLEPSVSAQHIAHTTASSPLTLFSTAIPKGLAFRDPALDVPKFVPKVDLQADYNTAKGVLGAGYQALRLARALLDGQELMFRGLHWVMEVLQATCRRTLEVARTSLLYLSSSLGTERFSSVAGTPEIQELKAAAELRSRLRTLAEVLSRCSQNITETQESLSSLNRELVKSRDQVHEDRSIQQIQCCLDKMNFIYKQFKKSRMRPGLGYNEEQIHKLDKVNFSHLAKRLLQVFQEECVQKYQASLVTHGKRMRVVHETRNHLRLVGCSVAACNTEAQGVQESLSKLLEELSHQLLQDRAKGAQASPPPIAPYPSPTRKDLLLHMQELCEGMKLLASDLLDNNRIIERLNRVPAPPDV

EIF2AK3 = EIF2AK3 (Homo sapiens (Human), UniProt Q9NZJ5); conditions: 1 micromolar inhibitor concentration, read-out: percentage inhibition
HIPK1 = HIPK1 (Homo sapiens (Human), UniProt Q86Z02); conditions: 1 micromolar inhibitor concentration, read-out: percentage inhibition
PAK6 = PAK6 (Homo sapiens (Human), UniProt Q9NQU5); conditions: 1 micromolar inhibitor concentration, read-out: percentage inhibition
MST3 = MST3 (Homo sapiens (Human), UniProt Q9Y6E0); conditions: 1 micromolar inhibitor concentration, read-out: percentage inhibition
Sequence of MST3 (Q9Y6E0 whole entry, species assumed): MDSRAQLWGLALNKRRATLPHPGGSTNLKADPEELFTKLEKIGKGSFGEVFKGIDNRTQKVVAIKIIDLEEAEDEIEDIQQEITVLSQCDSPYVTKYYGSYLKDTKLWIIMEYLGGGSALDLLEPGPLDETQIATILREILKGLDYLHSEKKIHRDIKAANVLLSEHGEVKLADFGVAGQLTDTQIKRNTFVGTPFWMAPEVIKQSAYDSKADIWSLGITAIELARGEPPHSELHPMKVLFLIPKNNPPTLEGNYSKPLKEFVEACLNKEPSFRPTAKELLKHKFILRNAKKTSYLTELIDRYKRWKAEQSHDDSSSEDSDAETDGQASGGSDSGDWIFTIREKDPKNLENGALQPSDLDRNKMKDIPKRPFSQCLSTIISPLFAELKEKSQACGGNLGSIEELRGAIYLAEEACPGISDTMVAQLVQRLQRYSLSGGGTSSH

MAP4K5 = MAP4K5 (Homo sapiens (Human), UniProt Q9Y4K4); conditions: 1 micromolar inhibitor concentration, read-out: percentage inhibition
MINK1 = MINK1 (Homo sapiens (Human), UniProt Q8N4C8); conditions: 1 micromolar inhibitor concentration, read-out: percentage inhibition
MEKK1 = MEKK1 (Homo sapiens (Human), UniProt Q13233); conditions: 1 micromolar inhibitor concentration, read-out: percentage inhibition
MLK1 = MLK1 (Homo sapiens (Human), UniProt P80192); conditions: 1 micromolar inhibitor concentration, read-out: percentage inhibition
TESK1 = TESK1 (Homo sapiens (Human), UniProt Q15569); conditions: 1 micromolar inhibitor concentration, read-out: percentage inhibition
Sequence of TESK1 (Q15569 whole entry, species assumed): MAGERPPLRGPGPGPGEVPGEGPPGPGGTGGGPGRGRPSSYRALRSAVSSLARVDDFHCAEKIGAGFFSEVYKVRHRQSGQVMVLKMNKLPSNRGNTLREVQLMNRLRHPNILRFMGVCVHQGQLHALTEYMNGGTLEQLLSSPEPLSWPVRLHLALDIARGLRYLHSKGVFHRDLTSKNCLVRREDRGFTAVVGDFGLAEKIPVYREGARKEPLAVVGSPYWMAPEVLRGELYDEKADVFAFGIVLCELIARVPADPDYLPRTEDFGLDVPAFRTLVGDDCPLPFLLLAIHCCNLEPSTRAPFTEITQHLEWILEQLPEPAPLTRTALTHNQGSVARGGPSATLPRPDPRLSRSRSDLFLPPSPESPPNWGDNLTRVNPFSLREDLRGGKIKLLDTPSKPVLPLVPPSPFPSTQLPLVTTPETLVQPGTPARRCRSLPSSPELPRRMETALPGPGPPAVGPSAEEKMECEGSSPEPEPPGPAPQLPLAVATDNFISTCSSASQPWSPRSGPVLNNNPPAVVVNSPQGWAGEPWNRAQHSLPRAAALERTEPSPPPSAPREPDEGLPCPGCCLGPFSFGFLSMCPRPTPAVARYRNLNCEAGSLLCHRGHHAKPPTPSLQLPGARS

TAO1 = TAO1 (Homo sapiens (Human), UniProt Q7L7X3); conditions: 1 micromolar inhibitor concentration, read-out: percentage inhibition
ASK1 = ASK1 (Homo sapiens (Human), UniProt Q99683); conditions: 1 micromolar inhibitor concentration, read-out: percentage inhibition
ULK1 = ULK1 (Homo sapiens (Human), UniProt O75385); conditions: 1 micromolar inhibitor concentration, read-out: percentage inhibition
Sequence of ULK1 (O75385 whole entry, species assumed): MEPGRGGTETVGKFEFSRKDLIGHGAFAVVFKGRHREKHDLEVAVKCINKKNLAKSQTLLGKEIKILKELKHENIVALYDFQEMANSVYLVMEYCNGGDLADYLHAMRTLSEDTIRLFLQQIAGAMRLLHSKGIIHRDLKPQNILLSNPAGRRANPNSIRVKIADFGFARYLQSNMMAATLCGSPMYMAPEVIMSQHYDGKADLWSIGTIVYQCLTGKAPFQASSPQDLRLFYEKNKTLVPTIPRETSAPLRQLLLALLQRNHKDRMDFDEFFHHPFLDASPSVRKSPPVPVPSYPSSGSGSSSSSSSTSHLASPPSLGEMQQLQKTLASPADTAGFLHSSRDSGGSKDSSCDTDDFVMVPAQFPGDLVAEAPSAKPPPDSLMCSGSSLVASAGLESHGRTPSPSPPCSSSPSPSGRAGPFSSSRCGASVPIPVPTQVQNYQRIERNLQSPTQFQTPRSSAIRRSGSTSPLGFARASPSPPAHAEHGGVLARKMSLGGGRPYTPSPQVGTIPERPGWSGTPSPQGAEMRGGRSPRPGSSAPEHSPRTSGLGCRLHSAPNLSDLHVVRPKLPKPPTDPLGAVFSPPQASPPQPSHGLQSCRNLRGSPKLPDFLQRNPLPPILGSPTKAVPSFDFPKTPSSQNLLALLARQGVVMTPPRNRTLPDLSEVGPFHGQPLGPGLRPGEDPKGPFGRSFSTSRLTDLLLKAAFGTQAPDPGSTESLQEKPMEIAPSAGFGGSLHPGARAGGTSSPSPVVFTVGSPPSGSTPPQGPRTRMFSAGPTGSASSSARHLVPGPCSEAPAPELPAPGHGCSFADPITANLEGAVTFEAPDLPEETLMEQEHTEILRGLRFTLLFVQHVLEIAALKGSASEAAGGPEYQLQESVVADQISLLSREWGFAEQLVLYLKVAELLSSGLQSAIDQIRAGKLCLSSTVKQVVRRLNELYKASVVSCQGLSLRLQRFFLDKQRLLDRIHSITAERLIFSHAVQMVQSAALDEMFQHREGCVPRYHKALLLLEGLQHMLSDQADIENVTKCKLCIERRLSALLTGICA

Lck = Lck (Homo sapiens (Human), UniProt P06239); conditions: 1 micromolar inhibitor concentration, read-out: percentage inhibition
ABL = ABL (Homo sapiens (Human), UniProt P00519); conditions: 1 micromolar inhibitor concentration, read-out: percentage inhibition
BTK = BTK (Homo sapiens (Human), UniProt Q06187); conditions: 1 micromolar inhibitor concentration, read-out: percentage inhibition
TIE2 = TIE2 (Homo sapiens (Human), UniProt Q02763); conditions: 1 micromolar inhibitor concentration, read-out: percentage inhibition
Sequence of TIE2 (Q02763 23-1124, species assumed): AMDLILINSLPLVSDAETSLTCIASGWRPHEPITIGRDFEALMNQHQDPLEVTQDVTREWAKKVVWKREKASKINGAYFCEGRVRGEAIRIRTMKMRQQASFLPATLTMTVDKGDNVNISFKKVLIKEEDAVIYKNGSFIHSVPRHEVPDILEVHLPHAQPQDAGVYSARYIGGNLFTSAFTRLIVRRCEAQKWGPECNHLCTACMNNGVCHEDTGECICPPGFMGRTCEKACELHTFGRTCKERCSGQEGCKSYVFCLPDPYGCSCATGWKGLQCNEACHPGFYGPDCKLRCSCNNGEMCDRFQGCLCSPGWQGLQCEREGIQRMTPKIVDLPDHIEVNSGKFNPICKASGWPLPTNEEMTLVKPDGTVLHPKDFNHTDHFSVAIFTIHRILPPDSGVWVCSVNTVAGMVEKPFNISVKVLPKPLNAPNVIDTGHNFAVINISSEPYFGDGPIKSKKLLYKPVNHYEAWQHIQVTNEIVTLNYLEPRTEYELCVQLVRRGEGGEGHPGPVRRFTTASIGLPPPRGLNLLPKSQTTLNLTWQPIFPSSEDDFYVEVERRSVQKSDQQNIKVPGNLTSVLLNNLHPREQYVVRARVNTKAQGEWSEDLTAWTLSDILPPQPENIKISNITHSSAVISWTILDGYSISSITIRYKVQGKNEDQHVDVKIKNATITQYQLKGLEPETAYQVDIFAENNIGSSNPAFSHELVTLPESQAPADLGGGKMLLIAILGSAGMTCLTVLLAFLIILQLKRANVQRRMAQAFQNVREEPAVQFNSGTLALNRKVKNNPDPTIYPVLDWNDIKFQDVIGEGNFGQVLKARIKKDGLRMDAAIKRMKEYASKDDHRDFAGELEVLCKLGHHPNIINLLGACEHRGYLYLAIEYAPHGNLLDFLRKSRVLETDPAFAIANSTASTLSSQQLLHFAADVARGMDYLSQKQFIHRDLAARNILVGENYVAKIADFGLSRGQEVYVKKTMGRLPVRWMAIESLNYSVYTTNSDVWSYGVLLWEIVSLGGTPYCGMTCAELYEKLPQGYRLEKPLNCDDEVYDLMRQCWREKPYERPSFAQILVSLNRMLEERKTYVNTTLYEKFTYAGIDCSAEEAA

BRK = BRK (Homo sapiens (Human), UniProt Q13882); conditions: 1 micromolar inhibitor concentration, read-out: percentage inhibition
EPH-A2 = EPH-A2 (Homo sapiens (Human), UniProt P29317); conditions: 1 micromolar inhibitor concentration, read-out: percentage inhibition
EPH-B3 = EPH-B3 (Homo sapiens (Human), UniProt P54753); conditions: 1 micromolar inhibitor concentration, read-out: percentage inhibition
EPH-B4 = EPH-B4 (Homo sapiens (Human), UniProt P54760); conditions: 1 micromolar inhibitor concentration, read-out: percentage inhibition
IGF-1R = IGF-1R (Homo sapiens (Human), UniProt P08069); conditions: 1 micromolar inhibitor concentration, read-out: percentage inhibition
PDGFRA = PDGFRA (Homo sapiens (Human), UniProt P16234); conditions: 1 micromolar inhibitor concentration, read-out: percentage inhibition

Work on CS(=O)(=O)Nc1cncc(-c2nc3cc(O)ccc3s2)c1 [4-99, N-(5-(5-Hydroxybenzo[d]thiazol-2-yl)pyridin-3-yl)methanesulfonamide] yielded an inhibition at 1 µM (p38a MAPK) of 0%, an inhibition at 1 µM (ERK8) of 0% and an inhibition at 1 µM (PDK1) of 0%. The inhibition at 1 µM (PKBa) was 0%, the inhibition at 1 µM (PKBb) was 0% and the inhibition at 1 µM (S6K1) was 0%. It also gave an inhibition at 1 µM (PKA) of 3%, an inhibition at 1 µM (MNK2) of 0% and an inhibition at 1 µM (CAMK1) of 0%. The inhibition at 1 µM (DAPK1) was 0%, the inhibition at 1 µM (CDK9-Cyclin T1) was 0% and the inhibition at 1 µM (PLK1) was 0%. For the same compound, the inhibition at 1 µM (TLK1) was 0%, the inhibition at 1 µM (LKB1) was 0% and the inhibition at 1 µM (BRSK1) was 0%. It also gave an inhibition at 1 µM (BRSK2) of 0%, an inhibition at 1 µM (CK1δ; CK1δ, 1 micromolar inhibitor concentration) of 8% and an inhibition at 1 µM (CK2) of 6%. For the same compound, the inhibition at 1 µM (IKKe) was 0%, the inhibition at 1 µM (EIF2AK3) was 0% and the inhibition at 1 µM (HIPK1) was 0%. It also gave an inhibition at 1 µM (PAK6) of 0%, an inhibition at 1 µM (MST3) of 0% and an inhibition at 1 µM (MAP4K5) of 0%. For the same compound, the inhibition at 1 µM (MINK1) was 0%, the inhibition at 1 µM (MEKK1) was 0% and the inhibition at 1 µM (MLK1) was 0%. It also gave an inhibition at 1 µM (TESK1) of 0%, an inhibition at 1 µM (TAO1) of 0% and an inhibition at 1 µM (ASK1) of 0%. For the same compound, the inhibition at 1 µM (ULK1) was 0%, the inhibition at 1 µM (Lck) was 0% and the inhibition at 1 µM (ABL) was 0%. For the same compound, the inhibition at 1 µM (BTK) was 0%, the inhibition at 1 µM (TIE2) was 3% and the inhibition at 1 µM (BRK) was 0%. For the same compound, the inhibition at 1 µM (EPH-A2) was 0%, the inhibition at 1 µM (EPH-B3) was 2% and the inhibition at 1 µM (EPH-B4) was 0%. For the same compound, the inhibition at 1 µM (IGF-1R) was 0% and the inhibition at 1 µM (PDGFRA) was 0%.

Compound COc1ccc2sc(-c3cncc(NC(C)=O)c3)nc2c1 [4-93, N-(5-(5-Methoxybenzo[d]thiazol-2-yl)pyridin-3-yl)acetamide] has an inhibition at 1 µM (p38a MAPK) of 0%, an inhibition at 1 µM (ERK8) of 11% and an inhibition at 1 µM (PDK1) of 0%. The inhibition at 1 µM (PKBa) was 0%, the inhibition at 1 µM (PKBb) was 0% and the inhibition at 1 µM (S6K1) was 0%. For the same compound, the inhibition at 1 µM (PKA) was 12%, the inhibition at 1 µM (MNK2) was 0% and the inhibition at 1 µM (CAMK1) was 0%. For the same compound, the inhibition at 1 µM (DAPK1) was 0%, the inhibition at 1 µM (CDK9-Cyclin T1) was 0% and the inhibition at 1 µM (PLK1) was 0%. It also gave an inhibition at 1 µM (TLK1) of 0%, an inhibition at 1 µM (LKB1) of 0% and an inhibition at 1 µM (BRSK1) of 0%. The inhibition at 1 µM (BRSK2) was 0%, the inhibition at 1 µM (CK1δ) was 1% and the inhibition at 1 µM (CK2) was 0%. For the same compound, the inhibition at 1 µM (IKKe) was 0%, the inhibition at 1 µM (EIF2AK3) was 0% and the inhibition at 1 µM (HIPK1) was 0%. It also gave an inhibition at 1 µM (PAK6) of 0%, an inhibition at 1 µM (MST3) of 0% and an inhibition at 1 µM (MAP4K5) of 18%. The inhibition at 1 µM (MINK1) was 0%, the inhibition at 1 µM (MEKK1) was 0% and the inhibition at 1 µM (MLK1) was 0%. The inhibition at 1 µM (TESK1) was 0%, the inhibition at 1 µM (TAO1) was 0% and the inhibition at 1 µM (ASK1) was 0%. For the same compound, the inhibition at 1 µM (ULK1) was 0%, the inhibition at 1 µM (Lck) was 7% and the inhibition at 1 µM (ABL) was 3%. For the same compound, the inhibition at 1 µM (BTK) was 8%, the inhibition at 1 µM (TIE2) was 0% and the inhibition at 1 µM (BRK) was 0%. The inhibition at 1 µM (EPH-A2) was 0%, the inhibition at 1 µM (EPH-B3) was 0% and the inhibition at 1 µM (EPH-B4) was 0%. It also gave an inhibition at 1 µM (IGF-1R) of 0% and an inhibition at 1 µM (PDGFRA) of 0%.
